Measured values as given in ChEMBL document CHEMBL3046414, “Synthesis, anticancer, anti-HIV-1, and antimicrobial activity of some tricyclic triazino and triazolo[4,3-e]purine derivatives” (Med Chem Res, 2012).

What was measured:
[1] = tested on: Escherichia coli; assay: Antimicrobial activity against Escherichia coli 5933 after 24 hr by agar cup diffusion technique; format: functional
[2] = tested on: Human immunodeficiency virus 1; assay: Antiviral activity against Human immunodeficiency virus 1 infected CEM cells assessed as inhibition of virus-induced cytopathic effect at 2 X 10^-4 M by XTT assay; format: functional; conditions: Human immunodeficiency virus 1, CCRF-CEM
[3] = tested on: Saccharomyces cerevisiae; assay: Antimicrobial activity against Saccharomyces cerevisiae ATCC 9763 after 48 hr by agar cup diffusion technique; format: functional
[4] = tested on: Pseudomonas aeruginosa; assay: Antimicrobial activity against Pseudomonas aeruginosa ATCC 9027 after 24 hr by agar cup diffusion technique; format: functional
[5] = tested on: CCRF-CEM; assay: Cytotoxicity against Homo sapiens (human) CEM cells by XTT assay; format: cell-based
[6] = tested on: Candida albicans; assay: Antimicrobial activity against Candida albicans NCTC 2708 after 48 hr by agar cup diffusion technique; format: functional
[7] = tested on: Staphylococcus aureus; assay: Antimicrobial activity against Staphylococcus aureus NCTC 4163 after 24 hr by two-fold serial dilution method; format: functional; conditions: NCTC 4163, 24 h
[8] = tested on: Staphylococcus aureus; assay: Antimicrobial activity against Staphylococcus aureus NCTC 4163 after 24 hr by agar cup diffusion technique; format: functional
[9] = tested on: Proteus vulgaris; assay: Antimicrobial activity against Proteus vulgaris ATCC 49132 after 24 hr by agar cup diffusion technique; format: functional
[10] = tested on: Bacillus spizizenii; assay: Antimicrobial activity against Bacillus subtilis subsp. spizizenii ATCC 6633 after 24 hr by two-fold serial dilution method; format: functional; conditions: ATCC 6633, 24 h
[11] = tested on: Bacillus spizizenii; assay: Antimicrobial activity against Bacillus subtilis subsp. spizizenii ATCC 6633 after 24 hr by agar cup diffusion technique; format: functional
[12] = tested on: Escherichia coli; assay: Antimicrobial activity against Escherichia coli 5933 after 24 hr by two-fold serial dilution method; format: functional; conditions: Escherichia coli, 5933, 24 h
[13] = tested on: Aspergillus terreus; assay: Antimicrobial activity against Aspergillus terreus after 48 hr by agar cup diffusion technique; format: functional
[14] = tested on: Salmonella typhi; assay: Antimicrobial activity against Salmonella enterica subsp. enterica serovar Typhi ATCC 13311 after 24 hr by agar cup diffusion technique; format: functional
[15] = tested on: Proteus vulgaris; assay: Antimicrobial activity against Proteus vulgaris ATCC 49132 after 24 hr by two-fold serial dilution method; format: functional; conditions: ATCC 49132, 24 h
[16] = tested on: Pseudomonas aeruginosa; assay: Antimicrobial activity against Pseudomonas aeruginosa ATCC 9027 after 24 hr by two-fold serial dilution method; format: functional; conditions: ATCC 9027, 24 h
[17] = tested on: NCI-H460; assay: Anticancer activity against Homo sapiens (human) NCI-H460 cells assessed as cell growth at 100 uM after 48 hr by Alamar blue assay; format: functional; conditions: NCI-H460, 48 h, read-out: Activity
[18] = tested on: SF-268; assay: Anticancer activity against Homo sapiens (human) SF268 cells assessed as cell growth at 100 uM after 48 hr by Alamar blue assay; format: functional; conditions: SF-268, 48 h, read-out: Activity
[19] = tested on: MCF7; assay: Anticancer activity against Homo sapiens (human) MCF7 cells assessed as cell growth at 100 uM after 48 hr by Alamar blue assay; format: functional; conditions: MCF7, 48 h, read-out: Activity

Row | Structure (SMILES) | inhibition zone (IZ) [1] [mm] | inhibition at 200 µM [2] [%] | inhibition zone (IZ) [3] [mm] | inhibition zone (IZ) [4] [mm] | IC50 [5] [µM] | inhibition zone (IZ) [6] [mm] | MIC [7] [µg/mL] | inhibition zone (IZ) [8] [mm] | inhibition zone (IZ) [9] [mm] | MIC [10] [µg/mL] | inhibition zone (IZ) [11] [mm] | MIC [12] [µg/mL] | inhibition zone (IZ) [13] [mm] | inhibition zone (IZ) [14] [mm] | MIC [15] [µg/mL] | MIC [16] [µg/mL] | growth at 100 µM [17] [%] | growth at 100 µM [18] [%] | growth at 100 µM [19] [%]
1 | Cn1c(=O)c2c(n(C)c1=O)n1c(SCc3ccccc3)nnc1n2C | 12 | 35.5 | 14 | 19 | > 200 | 11 | < 25 | 26 | 18 | – | – | – | – | – | – | – | – | – | –
2 | COc1ccc(-c2nnc3n(C)c4c(=O)n(C)c(=O)n(C)c4n23)cc1 | 20 | – | 16 | 21 | – | 18 | – | 14 | 28 | < 200 | 20 | < 200 | 16 | 17 | < 50 | < 200 | – | – | –
3 | Cn1c(=O)c2c(n(C)c1=O)n1c(=S)[nH]nc1n2C | 12 | – | 12 | 21 | – | 11 | < 50 | 24 | 19 | – | 11 | – | – | – | – | < 100 | – | – | –
4 | CSc1nnc2n(C)c3c(=O)n(C)c(=O)n(C)c3n12 | 12 | 4.86 | 12 | 20 | > 200 | 11 | < 200 | 20 | 19 | – | – | – | – | – | – | < 200 | – | – | –
5 | Cn1c(=O)c2c(n(C)c1=O)n1c(-c3ccc(Cl)cc3)nnc1n2C | 12 | – | 14 | 21 | – | 12 | < 100 | 22 | 25 | – | 13 | – | – | – | < 100 | < 200 | 95 | 90 | 82
6 | Cn1c(=O)c2nc3[nH]nc(C#N)c(=O)n3c2n(C)c1=O | 12 | 10.9 | 14 | 16 | > 200 | 15 | – | 14 | 22 | – | – | – | – | – | < 100 | – | – | – | –
7 | Cn1c(=O)c2[nH]c(/N=N/c3c(N)n[nH]c3N)nc2n(C)c1=O | – | 30.5 | 12 | – | > 200 | 11 | – | – | 14 | – | 10 | – | – | – | – | – | – | – | –
8 | CCOC(=O)c1n[nH]c2nc3c(=O)n(C)c(=O)n(C)c3n2c1=N | 15 | – | 15 | 20 | – | 17 | – | 16 | 22 | – | 14 | – | – | – | < 100 | – | 99 | 98 | 93
